According to PubChem BioAssay AID464 (The Scripps Research Institute Molecular Screening Center, 2006):
Active and inactive are the calls of the source.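 How the source made its calls: active means Compounds that kill half the cells at a concentration of 5 micromolar or below, from the fitted or estimated CC50; inactive means CC50 above 5 micromolar.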

Tested on: Jurkat E6.1 viability, ATP luminescence, 48 h
Assay: viability loss in Jurkat T cells – cell-based, ATP luminescence, 48 h, 60K MLSMR, cytotoxicity control, dose response (AID 464)

SMILES	CC50
COc1cccc(N2CCN(C(=O)c3[nH]c(C)c(C(C)=O)c3C)CC2)c1	1.74 µM
CCN(CC)c1nc(C#N)cc(-c2ccc(OC)cc2)n1	5.36 µM (inactive)
CCOC(=O)c1c(COc2ccccc2)oc2ccc(O)cc12	> 40 µM (inactive)
O=C1CN=C(c2cccs2)c2c(sc3c2CCCC3)N1	7.46 µM (inactive)
COc1cc(CSc2nnnn2-c2ccc(C)cc2)cc(OC)c1OC	2.38 µM
CN(CC1CCCO1)S(=O)(=O)c1ccc(C(=O)Nc2nc(-c3ccccn3)cs2)cc1 (stereo not given)	10.5 µM (inactive)
CCOC(=O)c1c(C)c(C(=O)Nc2cc(OC)ccc2OC)c(C)n1CC	11.4 µM (inactive)
Cn1cc(C(=O)c2ccc(Cl)cc2)cc1-c1nc2ccccc2n1C	23.3 µM (inactive)
Cc1ccc(OCCN2CCN(C(=O)CCC(=O)Nc3nnc(C(C)C)s3)CC2)cc1	5.08 µM (inactive)
COc1cc2c(cc1OC)CN(C(=O)c1cc3ccccc3oc1=O)CC2	5.04 µM (inactive)
CCCCNc1ncnc2c1cnn2-c1ccc(Cl)cc1	2.56 µM
CC(=O)Nc1ccccc1OCC(=O)c1cc(C)n(Cc2cccs2)c1C	0.16 µM
COC(=O)c1ccccc1NC(=O)Cn1c(-c2nonc2N)nc2ccccc21	0.245 µM
COc1cc(NS(=O)(=O)c2ccc(C)cc2C)cc(OC)c1OC	9.46 µM (inactive)
COc1ccc(N=Cc2c(O)[nH]c3ccccc23)cc1OC	11.3 µM (inactive)
CN(C)S(=O)(=O)c1ccc(N2CCN(S(=O)(=O)c3ccc(F)cc3)CC2)c(Cl)c1	16.1 µM (inactive)
CC(C)C(=O)NC(c1ccco1)c1ccc2cccnc2c1O (stereo not given)	2.89 µM
COc1cccc(CNC(=O)c2cc3oc4ccccc4c3n2C)c1OC	> 40 µM (inactive)
CCCNS(=O)(=O)c1ccc(OCC(=O)N2CCN(Cc3ccc4c(c3)OCO4)CC2)cc1	7.96 µM (inactive)
CCN=c1scc(-c2ccc3c(c2)NC(=O)CO3)n1N=C1CCCC1	8.47 µM (inactive)
CCCS(=O)(=O)c1nnnn1-c1cccc(OC)c1	1.73 µM
CCC(C)c1ccc(NC(=O)C2CCCN(c3ncccn3)C2)cc1 (stereo not given)	10.4 µM (inactive)
CCCCCCn1ccc(=N)cc1	5.08 µM (inactive)
Cc1ccc2[nH]c(=O)c(CN(Cc3ccco3)C(=O)c3ccncc3)cc2c1	6.52 µM (inactive)
O=C(CSc1ncnc2sc3c(c12)CCCCC3)NCc1ccco1	9.83 µM (inactive)
CCOC(=O)c1[nH]c(C)c(C(=O)Nc2ccccc2C)c1C	0.63 µM
O=C(Nc1nc2ccc(S(=O)(=O)N3CCCC3)cc2s1)C1CCCCC1	3.73 µM
O=C(Nc1nnc(-c2cccs2)o1)c1cccc(F)c1	21.7 µM (inactive)
CCCCCOC(=O)c1[nH]c2c(c1C)C(=O)CC(c1ccco1)C2 (stereo not given)	0.084 µM
COc1cc2c(O)c3c(c(-c4ccc5c(c4)OCO5)c2cc1OC)C(=O)OC3	5.28 µM (inactive)
